Experimental data: patent US8088927B2, “Fungicide N-cycloalkyl-benzyl-amide derivatives” (Bayer Cropscience AG, priority 2006, dated 2012)

assay: log P determination by HPLC on reversed-phase column (C 18), EEC Directive 79/831 Annex V.A8; assay type: physicochemical; settings: HPLC on reversed-phase column (C 18)
Method: Temperature: 40° C.; Mobile phases: 0.1% aqueous formic acid and acetonitrile; linear gradient from 10% acetonitrile to 90% acetonitrile.
Calibration was carried out using unbranched alkan-2-ones (comprising 3 to 16 carbon atoms) with known log P values (determination of the log P values by the retention times using linear interpolation between two successive alkanones).

Compound	LogP
COc1nn(C)cc1C(=O)N(Cc1ccc(Cl)cc1Cl)C1CC1 [Compound 251]	2.81
CCOc1nn(C)cc1C(=O)N(Cc1ccc(C(F)(F)F)cc1)C1CC1 [Compound 261]	2.92
Cc1nn(C)c(F)c1C(=O)N(Cc1ccc(Br)cc1)C1CC1 [Compound 422]	2.67
CC(c1ccc(Cl)cc1Cl)N(C(=O)c1cn(C)nc1I)C1CC1 (stereo not drawn) [Compound 266]	3.22
Cc1nn(C)c(F)c1C(=O)N(Cc1ccc(C(F)(F)F)cc1)C1CC1 [Compound 237, N-(4-trifluoromethyl-benzyl)-N-cyclopropyl-5-fluoro-1,3-dimethyl-1H-pyrazole-4-carboxamide]	2.8
Cn1cc(C(=O)N(Cc2ccc(C(F)(F)F)cc2)C2CC2)c(C(F)(F)F)n1 [Compound 260]	3.29
CCOc1nn(C)cc1C(=O)N(Cc1c(Cl)cc(Cl)cc1Cl)C1CC1 [Compound 257]	3.35
Cn1cc(C(=O)N(Cc2ccc(Oc3ccccc3)cc2)C2CC2)c(C(F)F)n1 [Compound 244]	3.37
COc1nn(C)cc1C(=O)N(Cc1c(Cl)cc(Cl)cc1Cl)C1CC1 [Compound 255]	2.97
Cc1nn(C)c(F)c1C(=O)N(Cc1ccc(Cl)cc1Cl)C1CC1 [Compound 236]	3.04
Cc1nc(C(F)F)c(C(=O)N(C2CC2)C(C#N)c2c(Cl)cccc2Cl)s1 (stereo not drawn) [Compound 213]	3.14
Cn1cc(C(=O)N(Cc2ccc(C(F)(F)F)cc2)C2CC2)c(C(F)F)n1 [Compound 242]	2.98
COC(=O)C(c1ccccc1Cl)N(C(=O)c1c(C)nn(C)c1F)C1CC1 (stereo not drawn) [Compound 383]	2.57
CCC(c1ccc(Cl)cc1Cl)N(C(=O)c1c(C)nn(C)c1F)C1CC1 (stereo not drawn) [Compound 386]	3.53
Cn1cc(C(=O)N(Cc2ccc(Cl)cc2Cl)C2CC2)c(I)n1 [Compound 254]	3.15
Cc1nc(C(F)F)c(C(=O)N(Cc2ccc(C(F)(F)F)cc2)C2CC2)s1 [Compound 172]	3.37
Cn1cc(C(=O)N(Cc2ccc(Cl)cc2Cl)C2CC2)c(C(F)(F)F)n1 [Compound 252]	3.58
Cn1cnc(C(=O)N(Cc2c(Cl)cc(Cl)cc2Cl)C2CC2)c1 [Compound 503]	2.40
Cn1cc(C(=O)N(Cc2ccc(C(F)(F)F)cc2)C2CC2)c(I)n1 [Compound 262]	2.92
COc1nn(C)cc1C(=O)N(Cc1ccc(C(F)(F)F)cc1)C1CC1 [Compound 259]	2.61
COc1nn(C)cc1C(=O)N(C1CC1)C(C)c1ccc(Cl)cc1Cl (stereo not drawn) [Compound 264]	2.83

Compound	LogP
CC(c1ccc(C(F)(F)F)cc1)N(C(=O)c1cn(C)nc1C(F)F)C1CC1 (stereo not drawn) [Compound 246]	3.27
Cc1nc(C(F)F)c(C(=O)N(Cc2c(Cl)cc(Cl)cc2Cl)C2CC2)s1 [Compound 171]	4.1
Cn1cc(C(=O)N(Cc2ccc(Cl)cc2Cl)C2CC2)c(C(F)F)n1 [Compound 241]	3.27
Cc1nn(C)c(F)c1C(=O)N(Cc1c(Cl)cc(Cl)cc1Cl)C1CC1 [Compound 238]	3.32
Cn1cc(C(=O)N(Cc2c(Cl)cc(Cl)cc2Cl)C2CC2)c(I)n1 [Compound 258]	3.34
Cc1nc(C(F)F)c(C(=O)N(C2CC2)C(C)c2ccc(Cl)cc2Cl)s1 (stereo not drawn) [Compound 173]	3.9
Cc1nc(C(F)(F)F)c(C(=O)N(Cc2c(Cl)cc(Cl)cc2Cl)C2CC2)s1 [Compound 170]	4.52
Cc1nc(C(F)(F)F)c(C(=O)N(Cc2ccc(Cl)cc2Cl)C2CC2)s1 [Compound 168]	4.19
Cn1cc(C(=O)N(Cc2c(Cl)cc(Cl)cc2Cl)C2CC2)c(C(F)(F)F)n1 [Compound 256]	3.78
Cc1nn(C)c(F)c1C(=O)N(C1CC1)C(C)c1ccc(Cl)cc1Cl (stereo not drawn) [Compound 263]	3.19
CCOc1nn(C)cc1C(=O)N(C1CC1)C(C)c1ccc(Cl)cc1Cl (stereo not drawn) [Compound 265]	3.19
Cc1nc(C(F)F)c(C(=O)N(Cc2ccc(Cl)cc2Cl)C2CC2)s1 [Compound 169]	3.74
COC(c1ccc(Cl)cc1Cl)N(C(=O)c1c(C)nn(C)c1F)C1CC1 (stereo not drawn) [Compound 500]	2.96
Cc1nn(C)c(F)c1C(=O)N(Cc1cccc(Br)c1)C1CC1 [Compound 412]	2.66
CCn1nc(C)c(Br)c1C(=O)N(Cc1c(Cl)cc(Cl)cc1Cl)C1CC1 [Compound 541]	2.4
Cn1cc(C(=O)N(Cc2c(Cl)cc(Cl)cc2Cl)C2CC2)c(C(F)F)n1 [Compound 243]	3.46
Cc1nn(C)c(F)c1C(=O)N(C1CC1)C(C#N)c1ccc(Cl)cc1Cl (stereo not drawn) [Compound 385]	3.15
CCOc1nn(C)cc1C(=O)N(Cc1ccc(Cl)cc1Cl)C1CC1 [Compound 253]	3.22
Cc1nc(C(F)F)c(C(=O)N(C2CC2)C(C#N)c2ccc(Cl)cc2Cl)s1 (stereo not drawn) [Compound 209]	3.61
CC(c1ccc(Cl)cc1Cl)N(C(=O)c1cn(C)nc1C(F)F)C1CC1 (stereo not drawn) [Compound 245]	3.31

same assay, conditions: HPLC, C 18, 40° C., 0.1% aqueous formic acid and acetonitrile gradient

Compound	LogP
Cn1cc(C(=O)N(Cc2ccc(C(F)(F)F)cc2)C2CC2)c(C(F)(F)F)c1 [Compound 100]	3.55
Cc1occc1C(=O)N(Cc1ccc(C(F)(F)F)cc1)C1CC1 [Compound 15]	3.43
Cn1cc(C(=O)N(Cc2c(Cl)cc(Cl)cc2Cl)C2CC2)c(C(F)(F)F)c1 [Compound 99]	4.08
Cc1occc1C(=O)N(Cc1ccc(Cl)cc1Cl)C1CC1 [Compound 11]	3.77
Cc1cc(C(=O)N(Cc2c(Cl)cc(Cl)cc2Cl)C2CC2)c(C(F)(F)F)o1 [Compound 14]	4.91
O=C(c1sccc1I)N(Cc1ccc(Cl)cc1Cl)C1CC1 [Compound 58]	4.48
O=C(c1sccc1I)N(Cc1c(Cl)cc(Cl)cc1Cl)C1CC1 [Compound 59]	4.86
Cn1cc(C(=O)N(Cc2ccc(Cl)cc2Cl)C2CC2)c(C(F)(F)F)c1 [Compound 98]	3.88
O=C(c1sccc1I)N(Cc1ccc(C(F)(F)F)cc1)C1CC1 [Compound 60]	4.04
Cc1cc(C(=O)N(Cc2ccc(C(F)(F)F)cc2)C2CC2)c(C(F)(F)F)o1 [Compound 16]	4.18
Cc1occc1C(=O)N(Cc1c(Cl)cc(Cl)cc1Cl)C1CC1 [Compound 13]	4.09
Cc1cc(C(=O)N(Cc2ccc(Cl)cc2Cl)C2CC2)c(C(F)(F)F)o1 [Compound 12]	4.6

same assay, conditions: reversed-phase HPLC column (C 18); HPLC, C 18, 40° C., 0.1% aqueous formic acid and acetonitrile gradient

Compound	chromatographic logP
Cc1nn(C)c(F)c1C(=O)N(Cc1ccc(C(F)(F)F)cc1)C1CC1 [Compound 237, N-(4-trifluoromethyl-benzyl)-N-cyclopropyl-5-fluoro-1,3-dimethyl-1H-pyrazole-4-carboxamide]	2.8
